Data published in US6335356B1, “Method of treating a patient by parenteral administration of a lipophilic compound” (Sugen, Inc., priority 1994, dated 2002).
Values after ≈ are worked out from the molar mass of the structure shown.

Legend:
[1] = assay type: physicochemical
Source text: The pH of the formulations can be adjusted with a pharmaceutically acceptable excipient. For example, the apparent pH of the POLYSORBATE 80®:alcohol formulations can be adjusted with citric acid.

[2] = Ability of leflunomide solutions to be diluted with aqueous solutions; assay type: physicochemical; conditions: for Solubility: organic solvent or mixture, read-out: concentration soluble and allowing dilution with aqueous solutions
Procedure: (§1) Leflunomide has a low solubility in standard formulations used to dissolve compounds for parenteral administration. For example, the solubility of leflunomide in VPD (126 mg alcohol, 40 mg POLYSORBATE 80®, 3 mg citric acid, 15 mg benzyl alcohol, and 325 mg PEG MW300; also referred to as PBTE) is about 60 mg/ml. Parenterally administered VPD formulations should be diluted at least 1:2 with a pharmaceutically acceptable aqueous solution to avoid toxic effects. Such dilution can result in precipitation of lipophilic compounds. For leflunomide, a concentration in VPD greater than about 5 mg/ml precipitates when diluted 1:2 with a pharmaceutically aqueous solution such as WFI. Leflunomide was solubilized in varying ratios of POLYSORBATE 80® and alcohol. The leflunomide solutions were then tested for the ability to dilute with aqueous solutions.

[3] = Solubility of leflunomide in vehicles (POLYSORBATE 80:alcohol ratios, alcohol, VPD/PBTE); assay type: physicochemical
Procedure: as §1, with “WFI.” for “WFI. Leflunomide was solubilized in varying ratios of POLYSORBATE 80® and alcohol. The leflunomide solutions were then tested for the ability to dilute with aqueous solutions.”
Increasing the solubility of leflunomide allows more leflunomide to be administered to a patient via parenteral administration. The formulations described by the present invention can use alcohol and a surfactant to solubilize leflunomide. Leflunomide is soluble in alcohol at 100 mg/ml. The surfactant is added to allow for the dilution into a pharmaceutically acceptable aqueous solution prior to injection.
Leflunomide was solubilized in varying ratios of POLYSORBATE 80® and alcohol. The leflunomide solutions were then tested for the ability to dilute with aqueous solutions.
As noted above, the stability of leflunomide in solution is pH dependent. To stabilize leflunomide varying amounts of citric acid (1 to 20 mg/ml) were added to both 33%T:66%E and 66%T:33%E. The citric acid decreased the apparent pH of the solutions.

[4] = Physical stability (precipitation) of leflunomide solutions over time; assay type: physicochemical

Cc1oncc1C(=O)Nc1ccc(C(F)(F)F)cc1 [Leflunomide, 5-methylisoxazole-4 carboxylic acid-(4-trifluromethyl)-anilide]
stability in solution [1]: breakdown to N-(4-trifluoromethylphenyl)-2-cyano-3-hydroxycrotonamide
Solubility ([2]; POLYSORBATE 80:alcohol vehicle 33%T:66%E, in 33%T:66%E): 25 mg/mL (≈ 92.5 mM)
Solubility ([2]; POLYSORBATE 80:alcohol vehicle 66%T:33%E, in 66%T:33%E): 50 mg/mL (≈ 185 mM)
concentration in VPD that precipitates when diluted 1:2 ([2]; VPD diluted 1:2 with pharmaceutically aqueous solution such as WFI): greater than 5 mg/ml
solubility after addition of citric acid ([3]; 33%:66%E with citric acid 1 to 20 mg/ml): no longer soluble to the same extent
Solubility ([3]; VPD (PBTE) parenteral vehicle, organic solvent or mixture, VPD (126 mg alcohol, 40 mg POLYSORBATE 80, 3 mg citric acid, 15 mg benzyl alcohol, 325 mg PEG MW300; also PBTE), read-out: solubility in VPD): ~60 mg/mL
Solubility ([3]; alcohol, organic solvent or mixture, read-out: soluble in alcohol at): 100 mg/mL
Solubility ([3]; vehicle 33%T:66%E (POLYSORBATE 80:alcohol v/v), 100 mg/ml): Insoluble
Solubility ([3]; vehicle 33%T:66%E, 25 mg/ml): Soluble
Solubility ([3]; vehicle 33%T:66%E, 50 mg/ml): Soluble
Solubility ([3]; vehicle 50%T:50%E, 50 mg/ml): Soluble
Solubility ([3]; vehicle 50%T:50%E, 55 mg/ml): Soluble
Solubility ([3]; vehicle 50%T:50%E, 60 mg/ml): Soluble
Solubility ([3]; vehicle 50%T:50%E, 75 mg/ml): Soluble
Solubility ([3]; vehicle 50%T:50%E, 100 mg/ml): Soluble
Solubility ([3]; vehicle 66%T:33%E, 50 mg/ml): Soluble
Solubility ([3]; vehicle 66%T:33%E, 100 mg/ml): Insoluble
Solubility ([3]; vehicle PBTE6C:WFI, 2.5 mg/ml): Soluble
Solubility ([3]; vehicle alcohol, 100 mg/ml): Soluble
remaining in solution ([4]; 20 mg/ml in 33%T:66%E with citric acid, 2-8° C. for 7 days): precipitate started to occur
remaining in solution ([4]; 20 mg/ml in 33%T:66%E with either 4 or 6 mg/ml citric acid, 4° C.): remains in solution
remaining in solution ([4]; 20 mg/ml in 33%T:66%E with either 4 or 6 mg/ml citric acid, room temperature): remains in solution
remaining in solution with time ([4]; 25 mg/ml in 33%T:66%E, diluted with aqueous solutions, room temperature (22° C. to 26° C.), over 3 days): falls out of solution
